Measured values published in patent US9193744B2, “Heterocyclic nuclear hormone receptor modulators” (AbbVie Inc., priority 2012, dated 2015).
Like-named read-outs stand apart in the source and are kept apart here.

What was measured:
[1] = molecular target: T1, Glucocorticoid Receptor (GR) (Homo sapiens, UniProt P04150); experiment: GR Fluorescence Polarization Assay (PolarScreen Glucocorticoid Receptor Competitor Assay, Red); settings: fluorescence polarization binding ranges
T1 construct: purchased Invitrogen P2893
T1 sequence (P04150 1-777): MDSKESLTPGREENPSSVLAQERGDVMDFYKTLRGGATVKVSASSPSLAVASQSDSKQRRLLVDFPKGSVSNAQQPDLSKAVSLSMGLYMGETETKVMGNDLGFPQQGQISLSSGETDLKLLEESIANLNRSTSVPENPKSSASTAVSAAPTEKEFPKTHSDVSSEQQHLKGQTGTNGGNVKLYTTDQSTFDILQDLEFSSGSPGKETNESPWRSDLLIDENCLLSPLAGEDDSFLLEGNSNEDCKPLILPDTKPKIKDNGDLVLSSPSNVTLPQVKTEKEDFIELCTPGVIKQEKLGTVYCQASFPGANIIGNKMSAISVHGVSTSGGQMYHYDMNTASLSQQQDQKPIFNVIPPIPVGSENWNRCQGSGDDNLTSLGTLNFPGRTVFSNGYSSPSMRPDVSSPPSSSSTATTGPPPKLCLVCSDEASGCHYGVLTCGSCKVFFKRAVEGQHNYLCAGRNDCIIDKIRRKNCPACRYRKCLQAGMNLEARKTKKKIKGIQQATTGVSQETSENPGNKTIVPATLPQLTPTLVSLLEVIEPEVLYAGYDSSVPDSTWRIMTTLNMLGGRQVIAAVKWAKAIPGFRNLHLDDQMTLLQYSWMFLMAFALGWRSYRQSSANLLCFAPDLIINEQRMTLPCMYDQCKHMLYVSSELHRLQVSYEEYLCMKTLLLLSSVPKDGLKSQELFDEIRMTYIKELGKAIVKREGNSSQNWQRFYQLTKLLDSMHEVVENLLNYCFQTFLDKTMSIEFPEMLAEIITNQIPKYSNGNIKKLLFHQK
Description: Fluorescence polarization assays were carried out using the PolarScreen™ Glucocorticoid Receptor Competitor Assay, Red from Invitrogen (P2893). The assay buffer was prepared according to the manufacturer's protocol and used to dilute the fluorescent glucocorticoid and GR. Compounds were prepared and serial diluted 1:4 in DMSO. Compound, fluorescent glucocorticoid and GR were added in a final volume of 20 μL and incubated overnight at 4° C. Fluorescent polarization was measured on the PerkinElmer Envision®. Fluorescence polarization binding ranges measured using GR Fluorescence Polarization Assay: […]

[2] = system: IL-6; experiment: A549 Cell Assay to Measure Inflammation Markers (inhibition of IL-1β-induced IL-6); assay type: cell-based; settings: Homo sapiens
Description: A549 Cell Assay to Measure Inflammation Markers
A549 cells were seeded (3E4 cells/well) in 96-well assay plates in culture medium (100 μL/well., F-12 K base media, supplemented with 10% FBS and 100 μ/mL-100 μg/mL Pen-Strep.) After overnight culture in an incubator set to 37° C., 4.9% CO2, and 90% humidity, media was removed from adherent cells by aspiration and replaced with 100 μL/well Assay Medium (F-12 K base media supplemented with 5% charcoal stripped calf sera and 100 U/mL-100 μg/mL Pen-Strep.) Compounds were prepared in DMSO and serial diluted (1:3, 1:4, or 1:5) with DMSO in Dilution Plate(s) to give 10 dilution points for each compound tested. Further dilution (1:250) of compound was made into assay medium and 50 μL/well diluted drug or DMSO/media control was applied to cells. After a 1 h pre-incubation in a temperature, CO2, and humidity controlled incubator, set to 37° C., 50 μL/well of 4 ng/mL IL-1β diluted in assay media, was applied to cultures. Assay plates, with a final volume of 200 μL/well and final concentrations of 0.1% DMSO and 1 ng/mL IL-1β were returned to incubator for a four h incubation period. Next, plates were spun at 183 g (1000 rpm in Beckman/Coulter Allegra 6KR centrifuge) for 10 min. Cell-free supernatant (150 μL/well) was collected and IL-6 was measured by MSD kit, following protocol of manufacturer, and using MSD SECTOR Imager 6000 instrument. Potency of compounds to inhibit IL-6 was determined using the percent reduction of measured IL-6 in wells with compound compared to control wells without drug, and relative to (100% inhibition) positive control compound of 1 μM prednisolone. Results were represented as IC50 and Emax values. To verify that viable cell numbers were similar across plate(s), and not confounding compound IC50 data interpretation, the remaining 50 μL/well of cells and media (after removal of supernatant) were used to run Cell Titer-Glo Assay per directions of manufacturer.

[3] = A549 cells, read-out: A549 cell assay
[4] = A549, read-out: A549 cell assay

| Compound | IC50 [1] | IC50 [2, 3] | IC50 [2, 4] |
| --- | --- | --- | --- |
| CCOC[C@@]1(O)CC[C@]2(CC)c3cc4cnn(-c5ccc(F)cc5)c4cc3CCC[C@H]2C1 (single isomer, unassigned) [Example 10] | 100 to 1000 nM | > 10000 nM |  |
| C[C@@]1(O)CC[C@@]2(Cc3ccccn3)c3cc4cnn(-c5ccc(F)cc5)c4cc3CCC[C@H]2C1 (single isomer, unassigned) [Example 15] | < 100 nM | < 100 nM |  |
| C[C@]1(O)CC[C@]2(Cc3ccccn3)c3cc4cnn(-c5ccc(F)cc5)c4cc3CCC[C@@H]2C1 (single isomer, unassigned) [Example 16] | < 100 nM | < 100 nM |  |
| N#CC[C@@]1(O)CC[C@@]2(Cc3ccccn3)c3cc4cnn(-c5ccc(F)cc5)c4cc3CCC[C@H]2C1 (single isomer, unassigned) [Example 17] | < 100 nM | < 100 nM |  |
| N#CC[C@]1(O)CC[C@]2(Cc3ccccn3)c3cc4cnn(-c5ccc(F)cc5)c4cc3CCC[C@@H]2C1 (single isomer, unassigned) [Example 18] | < 100 nM | < 100 nM |  |
| N#C[C@@]12CC[C@](O)(C(F)(F)F)C[C@H]1CCCc1cc3c(cnn3-c3ccc(F)cc3)cc12 (single isomer, unassigned) [Example 72] | < 100 nM | 100 to 1000 nM |  |
| N#C[C@]12CC[C@@](O)(C(F)(F)F)C[C@@H]1CCCc1cc3c(cnn3-c3ccc(F)cc3)cc12 (single isomer, unassigned) [Example 73] | 100 to 1000 nM |  | > 10000 nM |
| N#CC[C@@]12CC[C@](O)(C(F)(F)F)C[C@H]1CCCc1cc3c(cnn3-c3ccc(F)cc3)cc12 (single isomer, unassigned) [Example 81] | < 100 nM |  | < 100 nM |
| N#CC[C@]12CC[C@@](O)(C(F)(F)F)C[C@@H]1CCCc1cc3c(cnn3-c3ccc(F)cc3)cc12 (single isomer, unassigned) [Example 82] | < 100 nM | 100 to 1000 nM |  |
| CC(=O)NC[C@]12CC[C@@](O)(C(F)(F)F)C[C@@H]1CCCc1cc3c(cnn3-c3ccc(F)cc3)cc12 (single isomer, unassigned) [Example 83] | 100 to 1000 nM | 100 to 1000 nM |  |
| CC(=O)NC[C@@]12CC[C@](O)(C(F)(F)F)C[C@H]1CCCc1cc3c(cnn3-c3ccc(F)cc3)cc12 (single isomer, unassigned) [Example 84] | < 100 nM | < 100 nM |  |
| O=C(NC1CC1)[C@]12CC[C@@](O)(C(F)(F)F)C[C@@H]1CCCc1cc3c(cnn3-c3ccc(F)cc3)cc12 (single isomer, unassigned) [Example 87] | < 100 nM | 1000 to 10000 nM |  |
| CC[C@@]12CC[C@](O)(C(F)(F)F)[C@@H](O)[C@@H]1CCCc1cc3c(cnn3-c3ccc(F)cc3)cc12 (single isomer, unassigned) [Example 96] | < 100 nM | < 100 nM |  |
| CC[C@]12CC[C@@](O)(C(F)(F)F)[C@H](O)[C@H]1CCCc1cc3c(cnn3-c3ccc(F)cc3)cc12 (single isomer, unassigned) [Example 97] | < 100 nM | < 100 nM |  |
| CC[C@@]12C[C@@H](O)[C@](O)(C(F)(F)F)C[C@@H]1CCCc1cc3c(cnn3-c3ccc(F)cc3)cc12 (single isomer, unassigned) [Example 98] | < 100 nM | < 100 nM |  |
| CC[C@]12C[C@H](O)[C@@](O)(C(F)(F)F)C[C@H]1CCCc1cc3c(cnn3-c3ccc(F)cc3)cc12 (single isomer, unassigned) [Example 99] | < 100 nM | < 100 nM |  |
| CC[C@@]12CC[C@](O)(C(F)(F)F)C[C@H]1CC[C@H](O)c1cc3c(cnn3-c3ccc(F)cc3)cc12 (single isomer, unassigned) [Example 104] | < 100 nM | < 100 nM |  |

Second part, led by results:

| IC50 [1] | IC50 [2, 3] | Compound | IC50 [2, 4] |
| --- | --- | --- | --- |
| < 100 nM | < 100 nM | CC[C@@]12CC[C@](O)(C(F)(F)F)C=C1CCCc1cc3c(cnn3-c3ccc(F)cc3)cc12 (single isomer, unassigned) [Example 106] |  |
| < 100 nM | 100 to 1000 nM | CC[C@]12CC[C@@](O)(C(F)(F)F)C=C1CCCc1cc3c(cnn3-c3ccc(F)cc3)cc12 (single isomer, unassigned) [Example 107] |  |
| < 100 nM | < 100 nM | C#C[C@@]1(O)CC[C@@]2(CC)c3cc4cnn(-c5ccc(F)cc5)c4cc3CCC[C@@H]2C1 (single isomer, unassigned) [Example 109] |  |
| < 100 nM | 100 to 1000 nM | C#C[C@]1(O)CC[C@]2(CC)c3cc4cnn(-c5ccc(F)cc5)c4cc3CCC[C@H]2C1 (single isomer, unassigned) [Example 110] |  |
| 100 to 1000 nM | 100 to 1000 nM | CC[C@@]12CC(=O)[C@](O)(C(F)(F)F)C[C@H]1CCCc1cc3c(cnn3-c3ccc(F)cc3)cc12 (single isomer, unassigned) [Example 115] |  |
| 100 to 1000 nM | 100 to 1000 nM | CC[C@]12CC(=O)[C@@](O)(C(F)(F)F)C[C@@H]1CCCc1cc3c(cnn3-c3ccc(F)cc3)cc12 (single isomer, unassigned) [Example 116] |  |
| < 100 nM | < 100 nM | CC[C@@]12C[C@@](C)(O)[C@](O)(C(F)(F)F)C[C@H]1CCCc1cc3c(cnn3-c3ccc(F)cc3)cc12 (single isomer, unassigned) [Example 117] |  |
| < 100 nM | 100 to 1000 nM | CC[C@]12C[C@](C)(O)[C@@](O)(C(F)(F)F)C[C@@H]1CCCc1cc3c(cnn3-c3ccc(F)cc3)cc12 (single isomer, unassigned) [Example 118] |  |
| < 100 nM | < 100 nM | CC[C@@]12C[C@@H](O)[C@](O)(C(F)(F)F)C[C@H]1CCCc1cc3c(cnn3-c3ccc(F)cc3)cc12 (single isomer, unassigned) [Example 119] |  |
| < 100 nM | < 100 nM | CC[C@@]12C[C@H](O)[C@](O)(C(F)(F)F)C[C@H]1CCCc1cc3c(cnn3-c3ccc(F)cc3)cc12 (single isomer, unassigned) [Example 121] |  |
| < 100 nM | < 100 nM | CC[C@]12C[C@@H](O)[C@@](O)(C(F)(F)F)C[C@@H]1CCCc1cc3c(cnn3-c3ccc(F)cc3)cc12 (single isomer, unassigned) [Example 122] |  |
| < 100 nM | < 100 nM | CC[C@@]12CC[C@](O)(COC)C[C@@H]1CCCc1cc3c(cnn3-c3ccncc3)cc12 (single isomer, unassigned) [Example 123] |  |
| < 100 nM | < 100 nM | CC[C@@]12CC[C@](O)(COC)C[C@@H]1CCOc1cc3c(cnn3-c3ccnc(C)c3)cc12 (single isomer, unassigned) [Example 128] |  |
| < 100 nM | < 100 nM | CC[C@@]12CC[C@](O)(C(F)(F)F)C[C@H]1CCOc1cc3c(cnn3-c3ccc(F)cc3)cc12 (single isomer, unassigned) [Example 146] |  |
| < 100 nM | 100 to 1000 nM | CC[C@]12CC[C@@](O)(C(F)(F)F)C[C@@H]1CCOc1cc3c(cnn3-c3ccc(F)cc3)cc12 (single isomer, unassigned) [Example 147] |  |
| < 100 nM | < 100 nM | C[C@@]1(O)CC[C@@]2(Cc3ccccn3)c3cc4cnn(-c5ccc(F)cc5)c4nc3CCC[C@H]2C1 (single isomer, unassigned) [Example 149] |  |
